These results are taken from patent US10973748B2, “Compositions and methods for lightening skin and reducing hyperpigmentation” (Versitech Limited, priority 2016, dated 2021).

In experiment [1] the test system is MelanoDerm (Mel-300-A) epidermal equivalents containing melanocytes. Nature of the experiment: Depigmentation in artificial skin model: brightness and L* value. The class given is cell-based, human. The conditions noted are these: 6-CEPN 10 μM, 8-CEPQ 5 μM. The procedure:
Epidermal equivalents containing melanocytes (Mel-300-A) were maintained according to the manufacturer's instructions. Mel-300-A tissue was cultured in EPI-100-NMM-113 medium for 14 days. Agents were dissolved in tissue culture medium and changed every other day. The test agents were either (1) rapamycin (2.5 μM), as the positive control in depigmentation, (2) 6-CEPN (10 μM), or (3) 8-CEPQ (5 μM). The concentration of rapamycin used was lower than 6-CEPN and 8-CEPQ, as rapamycin is toxic to cells at higher concentration. Pigmentation of these skin equivalents was compared against treatment of cells with a culture medium only (denoted as “vehicle”). Tissue viability was assessed on day 14 by CCK-8 assay as described in Example 1. On day 14, single tissues were harvested and photographed. The L* parameter was used to evaluate skin lightening or darkening. The lighter the skin, the greater the L* value. ΔL* value was measured by a Chroma Meter CR400 (Konica Minolta) for an evaluation of lightening as a function of time. Three tissues for each treatment were frozen for the Solvable Melanin assay (Bessou-Touya et al., “Chimeric human epidermal reconstructs to study the role of melanocytes and keratinocytes in pigmentation and photoprotection.” Journal of investigative dermatology 111(6):1103-1108 (1998)). Additional tissues were fixed by 10% formanin. For melanin staining in paraffin-embedded tissues, Fontana-Masson silver staining was used as previously detailed (Barbosa et al., “A simple and economical modification of the Masson-Fontana method for staining melanin granules and enterochromaffin cells.” Stain technology 59(4):193-196 (1984)).

Experiment [2] has as its system microtubule-associated protein light chain 3 (LC-3). Put plainly: Western blot of LC-3 conversion (autophagy marker). The format is cell-based, murine. Particulars: melan-a cells, α-MSH and TPA, 72 hrs, 6-CEPN 10 or 20 μM. The procedure: Melan-a cells (3×10^5 cells/well) were seeded in a 6-well plate with 4 mL RPMI 1640 medium and 10% FBS. Melan-a cells were then transfected with 10 nM siRNA against autophagy-related protein 7 (ATG-7) or with the same concentration of a control siRNA, using HiPerfect Transfection Reagent. After 72 hrs of incubation, cell culture medium was replaced. Cells were then treated for 72 hrs with (1) α-MSH (1 μM) and TPA; (2) α-MSH (1 μM), TPA, and 6-CEPN (10 μM); or (3) α-MSH (1 μM), TPA, and 6-CEPN (20 μM). Total protein of cells was collected as described in the Western blotting in Example 2. The expressions of autophagy related proteins ATG-7 and microtubule-associated protein light chain 3 (LC-3) were analyzed by Western blot. LC-3 was selected because it was widely used to monitor autophagy. LC-3 can convert from a cytosolic form (i.e., LC-3 I) to a lipidated form (i.e., LC-3 II), the latter of which is attached to the autophagosome membrane (Mizushima N, et al., Autophagy, 3(6): 542-545 (2007)). ATG-7 is a required component in the conjugation of other autophagy-related proteins (e.g., the conjugation between ATG-12 and […]), which ultimately leads to the formation of autophagosome (“Autophagy Signaling Pathway,” Cell Signaling Technology, revised online October 2012).
For orientation: Immunoblotting shows a protein as a band on a membrane.

The test system of experiment [3] is microphthalmia-associated transcription factor (MITF). Nature of the experiment: Western blotting of MITF expression in melan-a cells. The class given is cell-based, murine. Particulars: α-MSH, 72 hrs, 20 μM. The procedure:
Melan-a cells (3×10^5 cells/well) were seeded in 4 mL of culture medium in a 6-well plate for at least 24 hrs prior to use. The cells were treated with α-MSH (1 μM) alone, α-MSH plus plus different concentration of agents for 72 hrs. The cells were washed with cold PBS and then lysed in 100 μL of RIPA buffer containing 1% Nonidet P-40, 0.1% sodium dodecylsulfate, 0.5% sodium deoxycholate, and 2% protease inhibitor at 4° C. Samples were centrifuged at 14,000 rpm for 30 mins at 4° C., and total proteins in the supernatant were separated. 10 μg of denatured proteins were loaded per lane, and separated by 10% SDS-PAGE gel. Proteins were then transferred to Immobilon-P Transfer Membranes (Millipore Co., Bed-ford, Mass.) by semidry transfer. Membranes were incubated with primary antibodies specific for Tyrosinase, tyrosinase-related protein-1 (TRP1), tyrosinase-related protein-2 (TRP2), and microphthalmia-associated transcription factor (MITF). The blots were subsequently washed and incubated with the appropriate secondary antibodies. Immunoreactive protein bands were visualized with enhanced chemiluminescence western blotting detection reagents and quantified using an ODYSSEY Fc Imaging system. The amounts of protein loaded were normalized against a control protein, β-actin.

As to `O=C1C[C@@H](c2ccc(O)cc2)Oc2cc(O)c(/C=C/c3ccccc3)c(O)c21` [6-CEPN, 6-C-(E-phenylethenyl)-naringenin], in experiment [1] (14 days, rapamycin 2.5 μM), the “brightness of the tissues (visual examination)” value is “increased the brightness of the tissues”. In addition, the “L* value vs negative control” value in experiment [1] (day 14, rapamycin 2.5 μM) is “increased the L* value”. Moreover, the “conversion of LC-3 I to LC-3 II” value in experiment [2] is on record as “increased the conversion of LC-3 I to LC-3 II”. Further, the “expression of MITF” value in experiment [3] is “no clear inhibition”.
